The conditions of data set [1]: 100 kPa, Liquid; for kinematic viscosity: Capillary tube (Ostwald / Ubbelohde) method; for mass density: Pycnometric method.
Data set [2] can be described thus: xn = mol fraction of the nth substance listed. As to conditions: 100 kPa, Liquid, x2 = 0; for kinematic viscosity: Capillary tube (Ostwald / Ubbelohde) method; for mass density: Pycnometric method.

Numbers after ± are expanded uncertainties.

Turning to `OCCOCCO` [diethylene glycol], the kinematic viscosity in data set [1] (298.15 K) is 2.47e-05 ± 2e-07 m2/s; in data set [1] (303.15 K), 1.96e-05 ± 2e-07 m2/s; in data set [1] (308.15 K), 1.53e-05 ± 1e-07 m2/s; in data set [1] (313.15 K) it was 1.29e-05 ± 1e-07 m2/s; in data set [1] (318.15 K), 1.1e-05 ± 1e-07 m2/s. Further, the mass density (in general, the mass of a sample divided by its volume) was 1112.8 ± 0.7 kg/m3 in data set [1] (298.15 K); 1109.2 ± 0.7 kg/m3 in data set [1] (303.15 K); 1105.6 ± 0.7 kg/m3 in data set [1] (308.15 K); 1102.3 ± 0.7 kg/m3 in data set [1] (313.15 K); 1099.2 ± 0.7 kg/m3 in data set [1] (318.15 K).

On to `OCCOCCO` [diethylene glycol] + NCCN, for which the kinematic viscosity in data set [2] (298.15 K) came out at 2.47e-05 ± 2e-07 m2/s; in data set [2] (303.15 K), 1.96e-05 ± 2e-07 m2/s; in data set [2] (308.15 K), 1.53e-05 ± 1e-07 m2/s; in data set [2] (313.15 K) it was 1.29e-05 ± 1e-07 m2/s; in data set [2] (318.15 K), 1.1e-05 ± 1e-07 m2/s. In addition, the mass density in data set [2] (298.15 K) was found to be 1112.8 ± 0.7 kg/m3; in data set [2] (303.15 K), 1109.2 ± 0.7 kg/m3; in data set [2] (308.15 K) it was 1105.6 ± 0.7 kg/m3; in data set [2] (313.15 K) it was 1102.3 ± 0.7 kg/m3; in data set [2] (318.15 K), 1099.2 ± 0.7 kg/m3.

With `NCCN` [ethane-1,2-diamine], the kinematic viscosity in data set [1] (298.15 K) is 1.56e-06 ± 1e-08 m2/s; in data set [1] (303.15 K), 1.39e-06 ± 1e-08 m2/s; in data set [1] (308.15 K), 1.27e-06 ± 1e-08 m2/s; in data set [1] (313.15 K), 1.17e-06 ± 1e-08 m2/s; in data set [1] (318.15 K), 1.08e-06 ± 1e-08 m2/s. Further, the mass density in data set [1] (298.15 K) was found to be 893.3 ± 0.7 kg/m3; in data set [1] (303.15 K), 888.8 ± 0.7 kg/m3; in data set [1] (308.15 K), 884.9 ± 0.7 kg/m3; in data set [1] (313.15 K), 880 ± 0.7 kg/m3; in data set [1] (318.15 K), 875.2 ± 0.7 kg/m3.

(Values after the NIST ThermoML archive (doi:10.1016/j.tca.2014.05.034).)
